Calls of active or inactive are those of the source.
Columns and labels:
[1] = luciferase reporter signal suppression in cells – H4 neuroglioma cells, luminescence, dose response (AID 1990); type: functional, cell-based
[2] = system: BJ; test: BJ-TERT fibroblast viability loss – cell-based, RAS-independent, luminescence, dose response (AID 1933); type: functional; conditions: Homo sapiens
[3] = Luminescence Cell-Based Dose Response HTS to Identify Inhibitors of 5'UTR Stem-Loop Driven Prion Protein mRNA Translation in H4 Neuroglioblastoma Cells. [Related pubchem assays: 1827 (Project Summary), 1813 (Primary HTS)]; type: functional
[4] = alpha-synuclein stem-loop luciferase translation blockers – H4 neuroglioma cells, luminescence, confirmation (AID 1988); type: functional, cell-based
[5] = system: BJ; test: cells; type: functional, cell-based; conditions: Homo sapiens
[6] = molecular target: G-protein coupled receptor 55 (Homo sapiens, UniProt Q9Y2T6); test: inhibition of LPI-stimulated GPR55 beta-arrestin translocation – imaging, U2OS, beta-arrestin-GFP, LPI agonist, primary screen (AID 2013); type: functional;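 further: antagonist potency measured as reduced agonist-driven arrestin aggregation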
G-protein coupled receptor 55, sequence (Q9Y2T6 whole entry): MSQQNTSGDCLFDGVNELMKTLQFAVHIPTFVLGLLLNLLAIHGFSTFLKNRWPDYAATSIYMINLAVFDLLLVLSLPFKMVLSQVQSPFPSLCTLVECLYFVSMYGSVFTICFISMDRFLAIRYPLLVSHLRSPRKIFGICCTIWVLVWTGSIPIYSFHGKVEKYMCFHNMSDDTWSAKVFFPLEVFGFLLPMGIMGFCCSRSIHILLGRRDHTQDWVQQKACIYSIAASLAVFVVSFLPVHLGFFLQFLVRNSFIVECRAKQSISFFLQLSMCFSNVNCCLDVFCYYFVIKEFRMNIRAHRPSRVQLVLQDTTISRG

[7] = system: BJ; test: BJ-TERT-LT-ST fibroblast viability loss – cell-based, RAS-independent, luminescence, dose response (AID 1935); type: functional; conditions: Homo sapiens;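 further: BJ fibroblasts immortalized with TERT plus LT and ST oncogenes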
[8] = DRD fibroblast viability loss – cell-based, non-viral oncogenic, luminescence, dose response (AID 1934); type: functional; conditions: Homo sapiens
[9] = molecular target: T1, Ubiquitin-conjugating enzyme E2 N (Homo sapiens, UniProt P61088); type: functional;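 further: Dose-response confirmation in a TR-FRET assay detecting UBC13-driven polyubiquitin chain formation, inhibition measured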
T1 sequence (P61088 whole entry): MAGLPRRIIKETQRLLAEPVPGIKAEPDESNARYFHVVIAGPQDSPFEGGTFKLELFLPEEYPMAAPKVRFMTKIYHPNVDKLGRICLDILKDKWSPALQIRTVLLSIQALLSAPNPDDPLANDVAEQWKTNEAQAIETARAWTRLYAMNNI

[10] = molecular target: T2, Insulin-degrading enzyme (Homo sapiens, UniProt P14735); test: recombinant IDE activation, cell-free – biochemical, fluorescence polarization, counter-screen for IDE activator project, dose response (AID 588681)
T2 sequence (P14735 whole entry): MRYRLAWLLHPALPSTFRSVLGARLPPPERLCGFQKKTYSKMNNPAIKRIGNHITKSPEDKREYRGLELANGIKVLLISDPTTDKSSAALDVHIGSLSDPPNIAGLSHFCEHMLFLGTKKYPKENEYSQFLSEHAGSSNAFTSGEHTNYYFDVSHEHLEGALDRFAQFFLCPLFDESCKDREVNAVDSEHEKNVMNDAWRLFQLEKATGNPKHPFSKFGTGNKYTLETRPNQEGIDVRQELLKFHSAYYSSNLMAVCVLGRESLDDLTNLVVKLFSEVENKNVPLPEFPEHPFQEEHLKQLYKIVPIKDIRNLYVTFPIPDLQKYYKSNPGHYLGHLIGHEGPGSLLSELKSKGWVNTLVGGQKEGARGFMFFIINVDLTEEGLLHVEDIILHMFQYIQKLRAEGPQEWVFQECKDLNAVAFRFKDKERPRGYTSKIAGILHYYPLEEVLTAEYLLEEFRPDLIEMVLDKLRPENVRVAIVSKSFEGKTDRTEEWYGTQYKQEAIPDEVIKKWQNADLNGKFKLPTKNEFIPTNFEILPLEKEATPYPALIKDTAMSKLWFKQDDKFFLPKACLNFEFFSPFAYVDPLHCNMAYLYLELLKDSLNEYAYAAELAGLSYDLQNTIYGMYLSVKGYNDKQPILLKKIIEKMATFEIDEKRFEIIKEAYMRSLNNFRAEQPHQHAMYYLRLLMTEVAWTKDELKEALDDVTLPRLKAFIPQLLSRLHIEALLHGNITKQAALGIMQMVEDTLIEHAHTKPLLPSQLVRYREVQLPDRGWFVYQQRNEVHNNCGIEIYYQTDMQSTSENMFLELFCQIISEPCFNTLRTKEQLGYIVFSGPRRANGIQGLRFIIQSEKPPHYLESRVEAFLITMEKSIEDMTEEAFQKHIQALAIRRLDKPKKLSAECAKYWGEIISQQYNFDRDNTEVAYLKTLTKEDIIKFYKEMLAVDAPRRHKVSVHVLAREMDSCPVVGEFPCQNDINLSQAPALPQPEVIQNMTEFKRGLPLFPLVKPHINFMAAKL

[11] = system: BJ; test: growth inhibition of engineered Ras-driven BJ cells – cell-based, alamar blue fluorescence, cherrypicked samples, dose response (AID 2631); type: functional; conditions: Homo sapiens;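 further: confirmatory dose-response assay in RAS-dependent BJ fibroblasts engineered with TERT, LT and ST, with cytotoxicity read by fluorescence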
[12] = molecular target: T2, Insulin-degrading enzyme; test: cellular IDE activation of Abeta substrate cleavage – fluorescence polarization, HEK cells, dose response (AID 588439); type: functional, cell-based
[13] = system: INS1; test: INS-1E survival protection against cytokine death – cell-based, luminescence, retest, dose response (AID 449756); type: functional; conditions: Rattus norvegicus;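 further: cell death triggered by IL-1 beta plus TNF-alpha plus IFN-gamma mixture; protective hits raise ATP signal compared with cytokine alone wells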
[14] = system: HEK293; test: membrane integrity loss in HEK cells – cell-based, fluorescence, cytotoxicity control for IDE activator project, dose response (AID 588440); type: functional; conditions: Homo sapiens;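 further: cytotoxicity by LDH release measuring loss of membrane integrity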
[15] = system: HEK293; test: optical interference in Abeta FP readout, dose response, artefact control for IDE activator project, biochemical, fluorescence polarization (AID 588442); type: functional, cell-based; conditions: Homo sapiens
[16] = molecular target: E3 ubiquitin-protein ligase Mdm2 (Homo sapiens, UniProt Q00987); test: MDM2-luc reporter signal enhancers, multi-concentration potency testing, MDM2 ubiquitin-protein ligase inhibitor program, whole-cell format, luminescence detection, 384-well microplate (AID 1394); type: functional;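 further: MDM2 E3 inhibitors raise luminescence so EC50 is for signal enhancement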
E3 ubiquitin-protein ligase Mdm2, sequence (Q00987 whole entry): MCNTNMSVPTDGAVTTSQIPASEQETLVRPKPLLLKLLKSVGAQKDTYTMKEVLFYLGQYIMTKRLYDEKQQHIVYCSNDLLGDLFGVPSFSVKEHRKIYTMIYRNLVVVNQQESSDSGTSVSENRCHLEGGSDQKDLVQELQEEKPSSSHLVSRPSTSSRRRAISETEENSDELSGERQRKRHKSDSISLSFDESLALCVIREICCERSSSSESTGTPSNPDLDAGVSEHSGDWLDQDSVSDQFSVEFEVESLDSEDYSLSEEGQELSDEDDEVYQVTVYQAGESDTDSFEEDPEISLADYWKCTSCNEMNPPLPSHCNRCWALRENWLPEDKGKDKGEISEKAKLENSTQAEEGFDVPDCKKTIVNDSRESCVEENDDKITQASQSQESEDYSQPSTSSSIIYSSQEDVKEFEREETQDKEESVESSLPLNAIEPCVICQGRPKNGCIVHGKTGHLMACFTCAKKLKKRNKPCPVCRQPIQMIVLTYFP

[17] = molecular target: Beta-galactosidase (Escherichia coli, UniProt Q8VNN2); test: PubChem AID 485352; type: functional
[18] = molecular target: T3, Type-1 angiotensin II receptor (Homo sapiens, UniProt P30556); test: antagonism of angiotensin II type 1 receptor – cell-based, uHTS hits, selectivity assay for APJ receptor antagonist project, dose response (AID 463214); type: functional;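 further: antagonist potency against angiotensin II stimulated AT1 response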
T3 sequence (P30556 whole entry): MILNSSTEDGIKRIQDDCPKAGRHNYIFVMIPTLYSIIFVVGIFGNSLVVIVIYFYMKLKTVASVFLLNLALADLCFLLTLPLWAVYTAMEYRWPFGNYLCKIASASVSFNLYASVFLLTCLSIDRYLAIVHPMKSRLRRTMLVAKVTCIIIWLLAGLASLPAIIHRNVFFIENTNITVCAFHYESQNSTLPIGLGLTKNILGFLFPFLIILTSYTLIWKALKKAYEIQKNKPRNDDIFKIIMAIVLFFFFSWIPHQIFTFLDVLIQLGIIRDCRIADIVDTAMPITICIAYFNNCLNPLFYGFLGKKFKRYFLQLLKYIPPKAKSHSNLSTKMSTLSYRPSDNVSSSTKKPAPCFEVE

[19] = HEK-293T viability loss after treatment – luminescence, T-cell screen hits, cytotoxicity control for TCR NF-kB inhibitor project, dose response (AID 489026); type: functional, cell-based;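 further: cells exposed to compound about 14 hours before the viability readout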
[20] = system: CHO; test: CHO cell viability loss, potency – luminescence, cytotoxicity control for TLR9-MyD88 binding inhibitor project, dose response (AID 588339); type: functional, cell-based, hamster; conditions: Cricetulus griseus;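 further: CHO cells stably coexpressing TLR9 and MyD88 fusions from primary screen; compound exposure lasted 48 hours before viability readout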
[21] = molecular target: Heat shock protein HSP 90-alpha (Homo sapiens, UniProt P07900); type: functional, organism-based
[22] = molecular target: Beta Lactamase (Pseudomonas aeruginosa, UniProt Q932Y6); test: BLA reporter interference, concentration series – BLA reporter cells, FRET fluorescence, artefact control for TLR9-MyD88 binding inhibitor project, dose response (AID 588341); type: cell-based;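 further: cell based assay in CHO-K1 cells stably expressing beta-lactamase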
Beta Lactamase, sequence (Q932Y6 whole entry): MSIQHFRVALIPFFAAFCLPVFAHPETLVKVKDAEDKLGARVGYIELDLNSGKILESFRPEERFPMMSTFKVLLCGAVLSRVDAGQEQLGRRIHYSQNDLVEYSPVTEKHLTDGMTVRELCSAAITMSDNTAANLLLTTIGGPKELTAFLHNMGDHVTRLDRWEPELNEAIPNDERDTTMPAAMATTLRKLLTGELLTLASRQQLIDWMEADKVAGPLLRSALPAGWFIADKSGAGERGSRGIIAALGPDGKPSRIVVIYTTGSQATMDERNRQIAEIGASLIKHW

[23] = molecular target: Melanocortin receptor 4 (Homo sapiens, UniProt P32245); test: inhibitors of MC4R cAMP signaling – cell-based, TR-FRET, biased antagonists, dose response (AID 602298); type: functional;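 further: antagonist potency against agonist-stimulated cAMP production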
Melanocortin receptor 4, sequence (P32245 whole entry): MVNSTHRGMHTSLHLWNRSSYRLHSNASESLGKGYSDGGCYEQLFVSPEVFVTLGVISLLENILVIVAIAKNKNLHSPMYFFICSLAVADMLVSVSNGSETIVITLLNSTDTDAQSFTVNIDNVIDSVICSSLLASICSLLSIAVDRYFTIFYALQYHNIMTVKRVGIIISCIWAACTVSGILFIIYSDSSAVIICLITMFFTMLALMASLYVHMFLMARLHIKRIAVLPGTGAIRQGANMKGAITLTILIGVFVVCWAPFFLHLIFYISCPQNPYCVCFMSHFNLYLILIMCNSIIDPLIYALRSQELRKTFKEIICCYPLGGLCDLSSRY

[24] = reduction of Shn3 3'UTR-driven luciferase in osteoblasts – cell-based, Clone20 osteoblasts, firefly luciferase, cherry-picked, dose response (AID 624132); type: functional;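 further: firefly luciferase luminescence from reporter carrying the Shn3 3'UTR in osteoblasts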
[25] = non-specific 3'UTR reporter inhibition in Clone20-Shn3RL – cell-based, Renilla luciferase, cherry-picked, counter-screen for Shn3 inhibitor project, dose response (AID 624133); type: functional
[26] = cAMP pathway inhibition in counterscreen cell line – TR-FRET cAMP detection, counter-screen for MC4R biased antagonist project, dose response (AID 602305); type: functional, cell-based;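 further: U2OS cells stimulated with forskolin near its EC80 as the cAMP inducer; potency is for inhibition of forskolin-stimulated cAMP signaling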
[27] = molecular target: T4, Fatty acid synthase (Homo sapiens, UniProt P49327); test: inhibition of human FAS-TE enzyme activity – biochemical, endpoint fluorescence intensity, uHTS hits, dose response (AID 624327); type: functional;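 further: fluorescence from hydrolysis of an O-methyl fluorescein acyl ester substrate by the enzyme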
T4 sequence (P49327 whole entry): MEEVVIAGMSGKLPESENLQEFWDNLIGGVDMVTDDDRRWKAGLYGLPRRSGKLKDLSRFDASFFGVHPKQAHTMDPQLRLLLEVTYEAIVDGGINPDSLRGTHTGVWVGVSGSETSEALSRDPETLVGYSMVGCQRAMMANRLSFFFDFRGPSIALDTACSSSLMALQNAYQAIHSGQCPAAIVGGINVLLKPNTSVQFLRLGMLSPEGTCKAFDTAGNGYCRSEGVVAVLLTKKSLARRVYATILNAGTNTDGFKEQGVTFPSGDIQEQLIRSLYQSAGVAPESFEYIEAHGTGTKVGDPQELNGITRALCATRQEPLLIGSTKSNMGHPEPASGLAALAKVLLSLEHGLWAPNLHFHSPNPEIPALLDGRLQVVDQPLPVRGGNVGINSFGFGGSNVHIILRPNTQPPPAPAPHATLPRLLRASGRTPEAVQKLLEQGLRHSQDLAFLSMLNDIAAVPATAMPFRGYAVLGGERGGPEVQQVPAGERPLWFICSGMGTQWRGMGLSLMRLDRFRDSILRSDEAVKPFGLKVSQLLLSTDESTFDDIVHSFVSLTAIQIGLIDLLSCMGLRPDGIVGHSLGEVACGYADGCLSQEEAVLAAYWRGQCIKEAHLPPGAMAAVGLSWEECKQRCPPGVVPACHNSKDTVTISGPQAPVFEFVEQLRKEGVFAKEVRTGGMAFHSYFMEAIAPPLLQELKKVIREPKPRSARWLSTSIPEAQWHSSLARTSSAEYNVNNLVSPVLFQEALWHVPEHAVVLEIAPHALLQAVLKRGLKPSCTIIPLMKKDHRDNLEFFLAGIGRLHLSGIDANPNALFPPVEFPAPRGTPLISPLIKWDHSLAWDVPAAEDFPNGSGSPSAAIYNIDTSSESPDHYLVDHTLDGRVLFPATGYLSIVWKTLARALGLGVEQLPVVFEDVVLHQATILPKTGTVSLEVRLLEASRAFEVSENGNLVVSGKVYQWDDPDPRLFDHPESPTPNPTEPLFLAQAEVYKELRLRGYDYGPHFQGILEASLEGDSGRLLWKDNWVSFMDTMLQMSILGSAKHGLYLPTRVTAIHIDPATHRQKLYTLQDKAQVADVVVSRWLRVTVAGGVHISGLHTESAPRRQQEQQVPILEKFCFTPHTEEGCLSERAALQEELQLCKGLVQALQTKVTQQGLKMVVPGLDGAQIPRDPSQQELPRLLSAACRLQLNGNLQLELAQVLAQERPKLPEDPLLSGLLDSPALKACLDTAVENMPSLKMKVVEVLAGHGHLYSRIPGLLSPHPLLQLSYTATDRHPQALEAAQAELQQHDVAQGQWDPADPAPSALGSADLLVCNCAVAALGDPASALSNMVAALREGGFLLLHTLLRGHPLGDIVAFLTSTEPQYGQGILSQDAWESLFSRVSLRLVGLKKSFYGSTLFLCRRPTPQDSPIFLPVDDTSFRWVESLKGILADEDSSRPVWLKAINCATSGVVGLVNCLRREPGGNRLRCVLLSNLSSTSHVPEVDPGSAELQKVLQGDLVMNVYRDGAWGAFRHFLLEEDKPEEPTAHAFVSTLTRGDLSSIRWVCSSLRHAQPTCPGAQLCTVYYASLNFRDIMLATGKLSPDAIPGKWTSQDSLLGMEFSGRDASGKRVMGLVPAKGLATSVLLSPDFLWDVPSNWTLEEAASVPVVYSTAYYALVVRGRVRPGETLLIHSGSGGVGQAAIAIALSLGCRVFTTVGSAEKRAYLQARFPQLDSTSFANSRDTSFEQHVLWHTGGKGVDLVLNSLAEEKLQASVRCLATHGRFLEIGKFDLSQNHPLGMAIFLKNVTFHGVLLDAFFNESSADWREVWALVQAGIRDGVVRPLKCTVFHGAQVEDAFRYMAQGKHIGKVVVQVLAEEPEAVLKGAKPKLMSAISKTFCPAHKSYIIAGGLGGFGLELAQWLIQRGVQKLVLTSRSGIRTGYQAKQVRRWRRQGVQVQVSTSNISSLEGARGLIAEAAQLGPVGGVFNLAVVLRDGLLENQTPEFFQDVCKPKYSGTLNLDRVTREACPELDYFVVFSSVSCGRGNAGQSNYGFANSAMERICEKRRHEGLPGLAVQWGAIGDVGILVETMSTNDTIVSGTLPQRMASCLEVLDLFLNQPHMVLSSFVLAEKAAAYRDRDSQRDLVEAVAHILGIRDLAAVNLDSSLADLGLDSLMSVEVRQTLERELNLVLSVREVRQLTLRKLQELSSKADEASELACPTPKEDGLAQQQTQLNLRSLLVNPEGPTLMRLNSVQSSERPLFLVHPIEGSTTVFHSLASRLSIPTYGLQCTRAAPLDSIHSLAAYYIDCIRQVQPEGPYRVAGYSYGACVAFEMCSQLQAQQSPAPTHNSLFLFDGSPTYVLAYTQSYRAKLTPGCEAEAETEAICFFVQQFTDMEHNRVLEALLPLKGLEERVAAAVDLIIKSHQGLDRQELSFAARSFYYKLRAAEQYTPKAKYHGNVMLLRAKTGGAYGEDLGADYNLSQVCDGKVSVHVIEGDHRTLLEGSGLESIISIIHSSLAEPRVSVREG

[28] = viability loss in HeLa cells – cytotoxicity control for MgcRacGAP inhibitor project, dose response (AID 624300); type: functional
[29] = molecular target: T5, Rac GTPase-activating protein 1 (Homo sapiens, UniProt Q9H0H5); test: blockers of MgcRacGAP-driven Rac1 GTP hydrolysis – biochemical, ADP Hunter fluorescence, primary and confirmatory, confirmation (AID 624330); type: functional
T5 sequence (Q9H0H5 whole entry): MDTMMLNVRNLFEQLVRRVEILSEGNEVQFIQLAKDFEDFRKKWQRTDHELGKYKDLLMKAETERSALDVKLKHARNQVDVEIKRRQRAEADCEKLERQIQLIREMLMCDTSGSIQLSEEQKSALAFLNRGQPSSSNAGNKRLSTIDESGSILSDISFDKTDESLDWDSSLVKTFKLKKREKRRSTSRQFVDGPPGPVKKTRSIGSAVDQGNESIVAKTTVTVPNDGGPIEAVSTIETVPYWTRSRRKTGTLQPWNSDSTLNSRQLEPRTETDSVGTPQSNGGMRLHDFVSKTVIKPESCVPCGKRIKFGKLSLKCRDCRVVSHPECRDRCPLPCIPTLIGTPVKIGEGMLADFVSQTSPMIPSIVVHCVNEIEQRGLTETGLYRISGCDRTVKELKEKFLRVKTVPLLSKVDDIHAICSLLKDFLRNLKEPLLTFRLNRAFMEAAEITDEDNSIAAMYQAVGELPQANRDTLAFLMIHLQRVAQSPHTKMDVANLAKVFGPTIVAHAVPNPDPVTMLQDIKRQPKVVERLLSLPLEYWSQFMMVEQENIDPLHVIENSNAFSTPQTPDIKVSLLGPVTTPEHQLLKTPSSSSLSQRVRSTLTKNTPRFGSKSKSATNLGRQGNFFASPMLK

[30] = molecular target: T4, Fatty acid synthase; test: inhibition of human FAS-TE enzyme activity – biochemical, kinetic fluorescence intensity, dose response (AID 624326); type: functional;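 further: rate of fluorescence rise from hydrolysis of a fluorogenic O-methyl fluorescein ester substrate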
[31] = molecular target: Protein disulfide-isomerase (Homo sapiens, UniProt P07237); test: inhibition of PDI-driven insulin aggregation – biochemical, turbidity, absorbance, cherry-picked samples, dose response (AID 602350); type: functional
[32] = molecular target: T6, High affinity choline transporter 1 (Homo sapiens, UniProt Q9GZV3); test: human choline transporter potentiators, potency – cell-based, 10-point CRC, membrane potential dye, dose response (AID 602376); type: functional
T6 sequence (Q9GZV3 whole entry): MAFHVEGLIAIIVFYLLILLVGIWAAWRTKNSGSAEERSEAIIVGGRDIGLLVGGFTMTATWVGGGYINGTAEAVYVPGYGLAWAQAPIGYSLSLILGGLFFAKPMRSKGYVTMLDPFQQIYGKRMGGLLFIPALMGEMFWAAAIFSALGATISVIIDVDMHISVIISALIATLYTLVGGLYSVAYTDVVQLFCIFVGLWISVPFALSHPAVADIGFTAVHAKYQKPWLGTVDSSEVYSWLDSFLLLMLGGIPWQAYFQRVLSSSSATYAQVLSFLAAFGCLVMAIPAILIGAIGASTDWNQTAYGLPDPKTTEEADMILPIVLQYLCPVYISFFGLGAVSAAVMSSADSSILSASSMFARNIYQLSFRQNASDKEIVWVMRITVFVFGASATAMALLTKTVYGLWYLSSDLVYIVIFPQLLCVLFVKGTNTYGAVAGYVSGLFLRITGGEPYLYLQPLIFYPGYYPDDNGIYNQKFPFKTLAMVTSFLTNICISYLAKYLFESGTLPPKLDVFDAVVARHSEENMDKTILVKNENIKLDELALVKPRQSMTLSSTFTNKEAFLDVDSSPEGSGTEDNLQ

## COC(=O)C1=C(C)N(Cc2ccccc2)C(NCc2cccc(C(F)(F)F)c2)=N[C@H]1c1cccc(F)c1
[1]
  EC50: 8.28 µM (active)
[2]
  EC50: 5.26 µM (inconclusive)
[3]
  EC50: 11 µM (active)
[4]
  EC50: > 120 µM (not active)
[5]
  EC50: > 150 µM (inconclusive)
[6]
  IC50: 1.85 µM (active)
[7]
  EC50: 4.9 µM (active)
[8]
  EC50: 9.59 µM (inconclusive)
[9]
  IC50: > 20 µM (inactive)
[10]
  EC50: > 54.7 µM (inactive)
[11]
  EC50: > 133 µM (inconclusive)
[12]
  EC50: 9.71 µM (active)
[13]
  AC50: 6.83 µM (active)
[14]
  IC50: 11.3 µM (inactive)
[15]
  EC50: > 54.7 µM (inactive)

## COc1ccc(NC(=O)/C(Cl)=C(/Cl)[S+]([O-])Cc2ccc(Cl)cc2)cn1 (configuration not stated)
[16]
  EC50: 0.62 µM (active)
[17]
  EC50: > 40 µM (inactive)
[18]
  IC50: 2.35 µM (active)
[19]
  IC50: 41.7 µM (inactive)
[20]
  IC50: 0.463 µM (active)
[21]
  AC50: 0.885 µM (active)
[22]
  IC50: 7.83 µM (active)
[23]
  IC50: 9.97 µM (active)
[24]
  AC50: 1.34 µM (active)
[25]
  AC50: 3.48 µM (active)
[26]
  IC50: > 64.6 µM (inactive)
[27]
  IC50: 5.57 µM (active)
[28]
  CC50: 100 µM (active)
[29]
  IC50: 16.9 µM (active)
[30]
  IC50: 2.83 µM (active)

## CCOc1cc(N2CCOCC2)c(OCC)cc1NC(=O)COC(=O)[C@H](Cc1c[nH]c2ccccc12)NC(C)=O
[31]
  AC50: 19.5 µM (active)

## CCCCn1c(N)c(N(CCC(C)C)C(=O)C2CCCN(C(=O)c3ccc(Cl)cc3)C2)c(=O)[nH]c1=O (configuration not stated)
[32]
  EC50: 21.3 µM (active)
